What was measured:
[1] = Analgesic activity / overall physiological activity, in words; format: in vivo; conditions: test not specified; versus Comparison Compound C
Method: (§1) The physiological activity of the compounds prepared in the Examples has been tested using various test methods and compared with the activities of various structurally similar commercial products. In each case, testing was carried out with equimolar quantities of the test compounds.
The analgesic activity was determined by the Writhing Test in the mouse using the method of E. Siegmund et al (Proceed. Soc. --Exp. Biol. Med. 95(1957) Page 729) and by the Randall-Selitto Test in the rat using the method of Randall and Selitto (Arch. Int. Pharmacodyn. 111(1957) Page 409).
The anti-inflammatory effect was measured by the carrageenin oedema test on rat paws using the method of Winter et al (Proceed. Soc. Exp. Biol. Med. 111(1962) Page 544) and in test series III) and also by the adjuvant arthritis test in the rat according to Pearson et al (Arthrit. Rheumat. 2(1959) page 440).

[2] = test system: carrageenin oedema on rat paws; experiment: Carrageenin oedema test on rat paws (Winter et al), anti-inflammatory effect; format: in vivo; conditions: rat paw; versus Comparison Compound of the same test series
Method: (§2) The physiological activity of the compounds prepared in the Examples has been tested using various test methods and compared with the activities of various structurally similar commercial products. In each case, testing was carried out with equimolar quantities of the test compounds. The anti-inflammatory effect was measured by the carrageenin oedema test on rat paws using the method of Winter et al (Proceed. Soc. Exp. Biol. Med. 111(1962) Page 544) and in test series III) and also by the adjuvant arthritis test in the rat according to Pearson et al (Arthrit. Rheumat. 2(1959) page 440).

rat [3] = experiment: Adjuvant arthritis test in the rat (Pearson et al), anti-inflammatory effect; format: in vivo; conditions: sub-chronic; for Adjuvant arthritis: test series III, equimolar quantities; for adjuvant arthritis test compared with comparison compound: versus Comparison Compound C
Method: as §2

mice = experiment: Toxicity by oral administration to mice; format: in vivo, mouse; conditions: versus Comparison Compound of the same test series
Method: as §1
The toxicity was measured by oral administration to 50 mice.

mouse = experiment: Writhing Test in the mouse (Siegmund et al), analgesic activity; format: in vivo; conditions: versus Comparison Compound of the same test series
Method: (§3) The physiological activity of the compounds prepared in the Examples has been tested using various test methods and compared with the activities of various structurally similar commercial products. In each case, testing was carried out with equimolar quantities of the test compounds. The analgesic activity was determined by the Writhing Test in the mouse using the method of E. Siegmund et al (Proceed. Soc. --Exp. Biol. Med. 95(1957) Page 729) and by the Randall-Selitto Test in the rat using the method of Randall and Selitto (Arch. Int. Pharmacodyn. 111(1957) Page 409).

[4] = prior-art compound; cited from earlier work
[5] = prior-art compound; cited from earlier work; remark: listed apart in the source
rat [6] = experiment: Randall-Selitto Test in the rat, analgesic activity; format: in vivo; conditions: versus Comparison Compound of the same test series
Method: as §3

SMILES: CP(C)(=O)CCCOC(=O)c1ccccc1Nc1c(C(F)(F)F)cnc2ccccc12 [Compound 1f, 3-(Dimethylphosphinyl)-propyl N-(3-trifluoromethyl-4-quinolyl)-anthranilate]
- analgesic activities compared with comparison compound [1]: clearly improved over that of Comparison Compound C

SMILES: CP(C)(=O)CCCOC(=O)c1ccccc1Nc1ccnc2cc(Cl)ccc12 [Compound 4, 3-(dimethylphosphinyl)-propyl N-(7-chloro-4-quinolyl)-anthranilate]
- Carrageenin oedema test / anti-inflammatory activity compared with comparison compound [2]: show an improvement compared with Compound A

SMILES: CP(C)(=O)COC(=O)c1ccccc1Nc1cccc(C(F)(F)F)c1 [Compound 1a, dimethylphosphinylmethyl N-(3-trifluoromethyl-phenyl)-anthranilate]
- analgesic activities compared with comparison compound [1]: clearly improved over that of Comparison Compound C
- Adjuvant arthritis (rat [3]): 5-10
- adjuvant arthritis test compared with comparison compound (rat [3]): considerably better than that of Comparision Compound C
- toxicity compared with comparison compound (mice): substantially more favourable than that of Compound C

SMILES: O=C(O)c1ccccc1Nc1cccc(C(F)(F)F)c1 [Compound C, Flufenamic acid, reference compound]
- Adjuvant arthritis (rat [3]): 25-50

SMILES: Cc1cccc(Nc2ccccc2C(=O)OCCCP(C)(C)=O)c1C [Compound 1d, Dimethylphosphinyl-propyl N-(2,3-dimethylphenyl)-anthranilate]
- Writhing test compared with comparison compound (mouse): substantial improvement over the Comparison Compound
- Carrageenin oedema test / anti-inflammatory activity compared with comparison compound [2]: more or less equivalent to these of the commercial compound
- toxicity compared with comparison compound (mice): more favourable toxicity than Compound B

SMILES: CP(C)(=O)CCCOC(=O)c1ccccc1Nc1cccc(C(F)(F)F)c1 [Compound 1e, Dimethylphosphinyl-propyl N-(3-trifluoromethylphenyl)-anthranilate]
- Adjuvant arthritis (rat [3]): 10-25
- adjuvant arthritis test compared with comparison compound (rat [3]): considerably better than that of Comparision Compound C
- toxicity compared with comparison compound (mice): substantially more favourable than that of Compound C

SMILES: CP(C)(=O)COC(=O)c1ccccc1Nc1ccnc2c(C(F)(F)F)cccc12 [Compound 2a, dimethylphosphinylmethyl N-(8-trifluoromethyl-4-quinolyl)-anthranilate]
- Writhing test compared with comparison compound (mouse): substantially better than the Comparison compound
- toxicity compared with comparison compound (mice): lower than that of Compound A

SMILES: CP(C)(=O)COC(=O)c1ccccc1Nc1ccnc2cc(Cl)ccc12 [Compound 2c, 3-(dimethylphosphinyl)-methyl N-(7-chloro-4-quinolyl)-anthranilate]
- Writhing test compared with comparison compound (mouse): substantially better than the Comparison compound
- Carrageenin oedema test / anti-inflammatory activity compared with comparison compound [2]: show an improvement compared with Compound A

SMILES: O=C(OCC(O)CO)c1ccccc1Nc1ccnc2cc(Cl)ccc12 (stereo not drawn) [2,3-dihydroxypropyl N-(7-chloro-4-quinolyl)-anthranilate]
- solubility in water, prior art [4]: insoluble in water
- analgesic activity, prior art [5]: known to have analgesic activity

SMILES: Cc1cccc(Nc2ccccc2C(=O)OCP(C)(C)=O)c1C [Compound 1c, Dimethylphosphinyl-methyl N-(2,3-dimethylphenyl)-anthranilate]
- Carrageenin oedema test / anti-inflammatory activity compared with comparison compound [2]: more or less equivalent to these of the commercial compound
- Randall-Selitto test compared with comparison compound (rat [6]): substantial improvement over the Comparison Compound
- toxicity compared with comparison compound (mice): more favourable toxicity than Compound B

SMILES: CP(C)(=O)COC(=O)c1cccnc1Nc1cccc(C(F)(F)F)c1 [Compound 2d, 3-(dimethylphosphinyl)-methyl 2-(3-trifluoromethylanilino)-nicotinate]
- Carrageenin oedema test / anti-inflammatory activity compared with comparison compound [2]: practically almost equal to that of the Comparison Compound
- toxicity compared with comparison compound (mice): more than twice that of Comparision Compouhd D

— patent US4160828A, “Analgesic phosphinyl compounds and compositions” (Hoechst Aktiengesellschaft, priority 1978, dated 1979)
